In patent publication US9409884B2 (Rigel Pharmaceuticals, Inc., priority 2012, dated 2016):

Target: AMPK
Assay: AMPK activation, enzyme-linked immunosorbent assay
Assay type: biochemical
Conditions: Table 8, compounds of Table 1
Method: Compounds of Table 1 were assayed for their ability to activate AMPK using an enzyme-linked immunosorbent assay.
Compounds of Table 2 were assayed for their ability to activate AMPK using an enzyme-linked immunosorbent assay.
Compounds of Table 3 were assayed for their ability to activate AMPK using an enzyme-linked immunosorbent assay.
Compounds of Table 4 were assayed for their ability to activate AMPK using an enzyme-linked immunosorbent assay.
Compounds of Table 5 were assayed for their ability to activate AMPK using an enzyme-linked immunosorbent assay.
Compounds of Table 6 were assayed for their ability to activate AMPK using an enzyme-linked immunosorbent assay.
Compounds of Table 7 were assayed for their ability to activate AMPK using an enzyme-linked immunosorbent assay.

| SMILES | EC50 [nM] |
| --- | --- |
| N#Cc1ccc(N2CCC(Oc3ccc(S(=O)(=O)NC4CCN(Cc5ccncc5)CC4)cn3)CC2)cc1 [Compound 1-52, N-(1-(pyridin-4-ylmethyl)piperidin-4-yl)-6-(1-(4-cyanophenyl)piperidin-4-yloxy)pyridine-3-sulfonamide] | 100 to 500 |
| N#Cc1ccc(CN2CCC(Oc3ccc(S(=O)(=O)NC4CCN(Cc5ccncc5)CC4)cn3)CC2)cc1 [Compound 1-53, 6-(1-(4-cyanobenzyl)piperidin-4-yloxy)-N-(1-(pyridin-4-ylmethyl)piperidin-4-yl)pyridine-3-sulfonamide] | 100 to 500 |
| CC(C)(C)OC(=O)N1CCC(NS(=O)(=O)c2ccc(OC3CCN(c4ccc(C(F)(F)F)cc4)CC3)nc2)CC1 [Compound 1-54, tert-butyl 4-(6-(1-(4-(trifluoromethyl)phenyl)piperidin-4-yloxy)pyridine-3-sulfonamido) piperidine-1-carboxylate] | 1000 to 5000 |
| O=S(=O)(NC1CCNCC1)c1ccc(OC2CCN(c3ccc(C(F)(F)F)cc3)CC2)nc1 [Compound 1-55, N-(piperidin-4-yl)-6-(1-(4-(trifluoromethyl)phenyl)piperidin-4-yloxy)pyridine-3-sulfonamide] | 1000 to 5000 |
| N#Cc1ccc(CN2CCC(NS(=O)(=O)c3ccc(OC4CCN(c5ccc(C(F)(F)F)cc5)CC4)nc3)CC2)cc1 [Compound 1-56, N-(1-(4-cyanobenzyl)piperidin-4-yl)-6-(1-(4-(trifluoromethyl)phenyl)piperidin-4-yloxy)pyridine-3-sulfonamide] | 5000 to 10000 |
| N#Cc1cccc(CN2CCC(NS(=O)(=O)c3ccc(OC4CCN(c5ccc(C(F)(F)F)cc5)CC4)nc3)CC2)c1 [Compound 1-57, N-(1-(3-cyanobenzyl)piperidin-4-yl)-6-(1-(4-(trifluoromethyl)phenyl)piperidin-4-yloxy)pyridine-3-sulfonamide] | 500 to 1000 |
| O=S(=O)(NC1CCN(Cc2ccc(C(F)(F)F)cc2)CC1)c1ccc(OC2CCN(c3ccc(C(F)(F)F)cc3)CC2)nc1 [Compound 1-58, N-(1-(4-(trifluoromethyl)benzyl)piperidin-4-yl)-6-(1-(4-(trifluoromethyl)phenyl)piperidin-4-yloxy)pyridine-3-sulfonamide] | < 100 |
| O=S(=O)(NC1CCN(Cc2cccc(C(F)(F)F)c2)CC1)c1ccc(OC2CCN(c3ccc(C(F)(F)F)cc3)CC2)nc1 [Compound 1-59, N-(1-(3-(trifluoromethyl)benzyl)piperidin-4-yl)-6-(1-(4-(trifluoromethyl)phenyl)piperidin-4-yloxy)pyridine-3-sulfonamide] | 100 to 500 |
| O=C(c1ccc(F)cc1)N1CCC(NS(=O)(=O)c2ccc(OC3CCN(c4ccc(C(F)(F)F)cc4)CC3)nc2)CC1 [Compound 1-60, N-(1-(4-fluorobenzoyl)piperidin-4-yl)-6-(1-(4-(trifluoromethyl)phenyl)piperidin-4-yloxy)pyridine-3-sulfonamide] | > 10000 |
| Cc1c(C(=O)NC2CCN(C(=O)OC(C)(C)C)CC2)oc2cc(OC3CCN(c4ccc(C(F)(F)F)cc4)CC3)ccc12 [Compound 1-61, tert-butyl 4-(3-methyl-6-(1-(4-(trifluoromethyl)phenyl)piperidin-4-yloxy)benzofuran-2-carboxamido) piperidine-1-carboxylate] | 100 to 500 |
| Cc1c(C(=O)NC2CCNCC2)oc2cc(OC3CCN(c4ccc(C(F)(F)F)cc4)CC3)ccc12 [Compound 1-62, 3-methyl-N-(piperidin-4-yl)-6-(1-(4-(trifluoromethyl)phenyl)piperidin-4-yloxy)benzofuran-2-carboxamide] | 5000 to 10000 |
| Cc1c(C(=O)NC2CCN(Cc3ccc(F)cc3)CC2)oc2cc(OC3CCN(c4ccc(C(F)(F)F)cc4)CC3)ccc12 [Compound 1-63, N-(1-(4-fluorobenzyl)piperidin-4-yl)-3-methyl-6-(1-(4-(trifluoromethyl)phenyl)piperidin-4-yloxy)benzofuran-2-carboxamide] | < 100 |
